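Method: 48-hour compound exposure of cells in 96-well plates, five concentrations, linear interpolation of endpoints. GI50: concentration for 50% inhibition of growth. TGI marks complete inhibition of growth.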
How the values were obtained:
Assay in all cases: growth of human tumour cells (NCI), 48 h
MCF7 breast = system: MCF7 breast
SN12C renal = system: SN12C renal
UACC-62 melanoma = system: UACC-62 melanoma
SNB-19 CNS = system: SNB-19 CNS
KM12 colon = system: KM12 colon
SF-539 CNS = system: SF-539 CNS
U251 CNS = system: U251 CNS
MALME-3M melanoma = system: MALME-3M melanoma
HT29 colon = system: HT29 colon
M14 melanoma = system: M14 melanoma
HCT-116 colon = system: HCT-116 colon
NCI-H460 lung = system: NCI-H460 lung
PC-3 prostate = system: PC-3 prostate
OVCAR-4 ovarian = system: OVCAR-4 ovarian
HCC-2998 colon = system: HCC-2998 colon
RPMI-8226 leukemia = system: RPMI-8226 leukemia
SF-295 CNS = system: SF-295 CNS
NCI-H226 lung = system: NCI-H226 lung
OVCAR-3 ovarian = system: OVCAR-3 ovarian
UACC-257 melanoma = system: UACC-257 melanoma
BT-549 breast = system: BT-549 breast
HOP-62 NSCLC = system: HOP-62 NSCLC
NCI-H23 lung = system: NCI-H23 lung
TK-10 renal = system: TK-10 renal
CCRF-CEM leukemia = system: CCRF-CEM leukemia
SK-MEL-2 melanoma = system: SK-MEL-2 melanoma
ACHN renal = system: ACHN renal
DU-145 prostate = system: DU-145 prostate
K-562 leukemia = system: K-562 leukemia
MOLT-4 leukemia = system: MOLT-4 leukemia
MDA-MB-231 breast = system: MDA-MB-231 breast
SK-MEL-5 melanoma = system: SK-MEL-5 melanoma
LOX IMVI melanoma = system: LOX IMVI melanoma
NCI-H522 lung = system: NCI-H522 lung
HS 578T breast = system: HS 578T breast
T-47D breast = system: T-47D breast
OVCAR-5 ovarian = system: OVCAR-5 ovarian
HL-60(TB) leukemia = system: HL-60(TB) leukemia
IGROV1 ovarian = system: IGROV1 ovarian
SF-268 CNS = system: SF-268 CNS
HCT-15 colon = system: HCT-15 colon
MDA-MB-435 = system: MDA-MB-435
EKVX NSCLC = system: EKVX NSCLC
UO-31 renal = system: UO-31 renal
SW-620 colon = system: SW-620 colon
CAKI-1 renal = system: CAKI-1 renal
NCI/ADR-RES ovarian = system: NCI/ADR-RES ovarian
OVCAR-8 ovarian = system: OVCAR-8 ovarian
A549 NSCLC = system: A549 NSCLC
SR leukemia = system: SR leukemia
SK-MEL-28 melanoma = system: SK-MEL-28 melanoma
COLO 205 colon = system: COLO 205 colon
A498 renal = system: A498 renal

Work on `COc1ccc2c3c(Nc4cccc(/C(C)=N\O)c4)[nH]c4ccccc4c-3c(N=O)c2c1` yielded a GI50 (MCF7 breast) of 73.9 µM, a TGI (MCF7 breast) of over 100 µM and a GI50 (SN12C renal) of 30 µM. It also gave a TGI (SN12C renal) of over 100 µM, a GI50 (UACC-62 melanoma) of 43.9 µM and a TGI (UACC-62 melanoma) of over 100 µM. For the same compound, the GI50 (SNB-19 CNS) was 43.7 µM, the TGI (SNB-19 CNS) was over 100 µM and the GI50 (KM12 colon) was 28.1 µM. For the same compound, the TGI (KM12 colon) was over 100 µM, the GI50 (SF-539 CNS) was over 100 µM and the TGI (SF-539 CNS) was over 100 µM. It also gave a GI50 (U251 CNS) of 33.3 µM, a TGI (U251 CNS) of over 100 µM and a GI50 (MALME-3M melanoma) of 34.7 µM. It also gave a TGI (MALME-3M melanoma) of 95.5 µM, a GI50 (HT29 colon) of 18.3 µM and a TGI (HT29 colon) of over 100 µM. For the same compound, the GI50 (M14 melanoma) was 29.9 µM, the TGI (M14 melanoma) was over 100 µM and the GI50 (HCT-116 colon) was 14.6 µM. For the same compound, the TGI (HCT-116 colon) was 34.2 µM, the GI50 (NCI-H460 lung) was 33.6 µM and the TGI (NCI-H460 lung) was over 100 µM. It also gave a GI50 (PC-3 prostate) of 20.5 µM, a TGI (PC-3 prostate) of 65.4 µM and a GI50 (OVCAR-4 ovarian) of 29 µM. The TGI (OVCAR-4 ovarian) was over 100 µM, the GI50 (HCC-2998 colon) was 10.6 µM and the TGI (HCC-2998 colon) was 22.4 µM. The GI50 (RPMI-8226 leukemia) was 25.5 µM, the TGI (RPMI-8226 leukemia) was over 100 µM and the GI50 (SF-295 CNS) was over 100 µM. The TGI (SF-295 CNS) was over 100 µM, the GI50 (NCI-H226 lung) was 54 µM and the TGI (NCI-H226 lung) was over 100 µM. It also gave a GI50 (OVCAR-3 ovarian) of 33.2 µM, a TGI (OVCAR-3 ovarian) of 88.2 µM and a GI50 (UACC-257 melanoma) of 41 µM. For the same compound, the TGI (UACC-257 melanoma) was over 100 µM, the GI50 (BT-549 breast) was 47 µM and the TGI (BT-549 breast) was over 100 µM. The GI50 (HOP-62 NSCLC) was 37.9 µM, the TGI (HOP-62 NSCLC) was over 100 µM and the GI50 (NCI-H23 lung) was 0.752 µM. The TGI (NCI-H23 lung) was 27.1 µM, the GI50 (TK-10 renal) was 80.3 µM and the TGI (TK-10 renal) was over 100 µM. It also gave a GI50 (CCRF-CEM leukemia) of 13.6 µM, a TGI (CCRF-CEM leukemia) of over 100 µM and a GI50 (SK-MEL-2 melanoma) of 19.7 µM. It also gave a TGI (SK-MEL-2 melanoma) of 67.7 µM, a GI50 (ACHN renal) of 33.3 µM and a TGI (ACHN renal) of 91.7 µM. The GI50 (DU-145 prostate) was 16 µM, the TGI (DU-145 prostate) was 75.1 µM and the GI50 (K-562 leukemia) was 31.6 µM. It also gave a TGI (K-562 leukemia) of over 100 µM, a GI50 (MOLT-4 leukemia) of 7 µM and a TGI (MOLT-4 leukemia) of 62.2 µM. For the same compound, the GI50 (MDA-MB-231 breast) was 18.9 µM, the TGI (MDA-MB-231 breast) was 44.5 µM and the GI50 (SK-MEL-5 melanoma) was 29.8 µM. For the same compound, the TGI (SK-MEL-5 melanoma) was over 100 µM, the GI50 (LOX IMVI melanoma) was 29.1 µM and the TGI (LOX IMVI melanoma) was 67.7 µM. For the same compound, the GI50 (NCI-H522 lung) was 46.2 µM, the TGI (NCI-H522 lung) was over 100 µM and the GI50 (HS 578T breast) was 94.8 µM. The TGI (HS 578T breast) was over 100 µM, the GI50 (T-47D breast) was 16.9 µM and the TGI (T-47D breast) was over 100 µM. It also gave a GI50 (OVCAR-5 ovarian) of 26.5 µM, a TGI (OVCAR-5 ovarian) of 96.9 µM and a GI50 (HL-60(TB) leukemia) of 16.9 µM. It also gave a TGI (HL-60(TB) leukemia) of over 100 µM, a GI50 (IGROV1 ovarian) of 26.1 µM and a TGI (IGROV1 ovarian) of 84.5 µM. The GI50 (SF-268 CNS) was over 100 µM, the TGI (SF-268 CNS) was over 100 µM and the GI50 (HCT-15 colon) was 18 µM. For the same compound, the TGI (HCT-15 colon) was 39.6 µM, the GI50 (MDA-MB-435) was 30.9 µM and the TGI (MDA-MB-435) was over 100 µM. It also gave a GI50 (EKVX NSCLC) of 20.5 µM, a TGI (EKVX NSCLC) of 93.2 µM and a GI50 (UO-31 renal) of 52.9 µM. It also gave a TGI (UO-31 renal) of over 100 µM, a GI50 (SW-620 colon) of 32.1 µM and a TGI (SW-620 colon) of over 100 µM. For the same compound, the GI50 (CAKI-1 renal) was 29.3 µM, the TGI (CAKI-1 renal) was 54.8 µM and the GI50 (NCI/ADR-RES ovarian) was 21.2 µM. It also gave a TGI (NCI/ADR-RES ovarian) of 96.9 µM, a GI50 (OVCAR-8 ovarian) of 25.8 µM and a TGI (OVCAR-8 ovarian) of over 100 µM. It also gave a GI50 (A549 NSCLC) of 27.6 µM, a TGI (A549 NSCLC) of over 100 µM and a GI50 (SR leukemia) of 20.4 µM. The TGI (SR leukemia) was over 100 µM, the GI50 (SK-MEL-28 melanoma) was 12.7 µM and the TGI (SK-MEL-28 melanoma) was 42.7 µM. The GI50 (COLO 205 colon) was 21.3 µM, the TGI (COLO 205 colon) was 57.1 µM and the GI50 (A498 renal) was 78.1 µM. The TGI (A498 renal) was over 100 µM.

From PubChem BioAssay (NCI)
